Laboratory results as given in PubChem BioAssay (NCI).
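Five concentrations, 48 hours, 96-well plates. The concentration for full growth arrest is given as TGI.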

Tested on: NCI-H460 lung
Assay: DTP human tumour cell line panel, 48 h

Compound | TGI [µM]
COc1ccc2c(c1)/C(=C\c1c(C)nc3n1CCS3)C(=O)N2 | > 100
COC(=O)C1=C(O)C(C(=O)OC)[C@]2(O)[C@H](C(=O)OC)[C@H]1C[C@@H](c1ccc(F)cc1)[C@H]2C(=O)OC (stereo partly drawn) | 63.1
CCN(CC)c1cc2c3c(c1)CCCN3CCC2 | > 10
CN(C)C=C1C(=O)c2c(Br)sc(Br)c2C1=O | 48.7
CC(=O)O[C@H]1CC[C@H]2[C@@H]3CCC4C(C)=NNC(=O)C4[C@H]3CC[C@]12C (stereo partly drawn) | > 100
COc1cc2c[n+](C)c3c4cc5c(cc4ccc3c2cc1OC)OCO5 | 14.7
O=c1[nH]c(C23CC4CC(CC(C4)C2)C3)cc2c1c(=O)oc1ccccc12 | 11.6
CCN(CC)C(=C(C(Cl)=C(Cl)Cl)[N+](=O)[O-])N(CC)CC | > 100
O=C1C(=O)c2c(oc(=O)c3ccccc23)-c2ccccc21 | > 25
CCOC(=O)C(C(=O)OCC)=C1NC2(c3ccccc3Nc3ccc(C)cc32)C(C#N)S1 (stereo not drawn) | 12.7
CN1CCC2(CC1)SC[C@H]1C(=O)N(c3ccc(Cl)cc3)C(=O)N12 | > 100
CC(C)=CCC[C@@H](C)C1=C(O)C(O)C(C)=C2N=C(c3ccccc3)C(=O)OC21 (stereo partly drawn) | > 17
Cc1cc([C@H](C#N)c2nc3ccccc3[nH]2)nc(Cl)n1 | 63.5
CC(C)(C)[Si](C)(C)O[C@@H](C(=O)OC1C=CCCC1)[C@@H](NC(=O)c1ccccc1)c1ccccc1 (stereo partly drawn) | 42.2
Cc1oc2c(c1C)S(=O)(=O)C(C#N)=C(c1ccccc1)N2 | > 100
O=C1c2ccccc2C(O)(C(=O)O)C1(O)CC=C(Cl)Cl (stereo not drawn) | > 125
COc1cccc(OC/C(N=Cc2cccnc2)=N/NC(=O)c2ccncc2)c1 | > 100
C/C1=C/C(C)CC(C)OC(=O)C(C)NC(=O)C(Cc2ccc(O)c(I)c2)N(C)C(=O)CNC(=O)C(C)C1 (stereo not drawn) | > 59.7
CO[C@H]1c2cccc3cccc(c23)[C@@H]1n1[nH]c(=O)n(C(C)(C)C)c1=O | > 100
CCCCCCCCCCCCCCCCCCNc1ccn(C2OC(COP(=O)(O)OC3CC(n4cc(F)c(=O)[nH]c4=O)OC3COP(=O)(O)OCC3OC(n4ccc(N)nc4=O)C(O)C3O)C(O)C2O)c(=O)n1 (stereo not drawn) | > 32.7

Tested on: NCI/ADR-RES ovarian
Assay: DTP human tumour cell line panel, 48 h

Compound | TGI [µM]
Nc1nc(N)c2cc(Sc3ccc4nc(N)nc(N)c4c3)ccc2n1 | > 100
N#CC(C#N)N=Cc1ccncc1 | > 100
COc1ccc2c(c1)/C(=C\c1c(C)nc3n1CCS3)C(=O)N2 | > 100
COC(=O)C1=C(O)C(C(=O)OC)[C@]2(O)[C@H](C(=O)OC)[C@H]1C[C@@H](c1ccc(F)cc1)[C@H]2C(=O)OC (stereo partly drawn) | 36.8
CCN(CC)c1cc2c3c(c1)CCCN3CCC2 | > 10
CN(C)C=C1C(=O)c2c(Br)sc(Br)c2C1=O | 73.2
CC(=O)O[C@H]1CC[C@H]2[C@@H]3CCC4C(C)=NNC(=O)C4[C@H]3CC[C@]12C (stereo partly drawn) | > 100
COc1cc2c[n+](C)c3c4cc5c(cc4ccc3c2cc1OC)OCO5 | > 100
O=c1[nH]c(C23CC4CC(CC(C4)C2)C3)cc2c1c(=O)oc1ccccc12 | 18.9
CCN(CC)C(=C(C(Cl)=C(Cl)Cl)[N+](=O)[O-])N(CC)CC | > 100
O=C1C(=O)c2c(oc(=O)c3ccccc23)-c2ccccc21 | > 25
CCOC(=O)C(C(=O)OCC)=C1NC2(c3ccccc3Nc3ccc(C)cc32)C(C#N)S1 (stereo not drawn) | 25.7
CN1CCC2(CC1)SC[C@H]1C(=O)N(c3ccc(Cl)cc3)C(=O)N12 | > 100
CC(C)=CCC[C@@H](C)C1=C(O)C(O)C(C)=C2N=C(c3ccccc3)C(=O)OC21 (stereo partly drawn) | 3.13
Cc1cc([C@H](C#N)c2nc3ccccc3[nH]2)nc(Cl)n1 | > 100
CC(C)(C)[Si](C)(C)O[C@@H](C(=O)OC1C=CCCC1)[C@@H](NC(=O)c1ccccc1)c1ccccc1 (stereo partly drawn) | > 100
Cc1oc2c(c1C)S(=O)(=O)C(C#N)=C(c1ccccc1)N2 | > 100
O=C1c2ccccc2C(O)(C(=O)O)C1(O)CC=C(Cl)Cl (stereo not drawn) | > 125
CC(=O)O[C@@H]1CC[C@@]2(C)C(CC[C@H]3[C@@H]4CC[C@H]([C@H](C)CCc5nc6ccc(C)cc6[nH]5)[C@@]4(C)CC[C@@H]32)C1 (stereo partly drawn) | > 100
COc1cccc(OC/C(N=Cc2cccnc2)=N/NC(=O)c2ccncc2)c1 | > 100
C/C1=C/C(C)CC(C)OC(=O)C(C)NC(=O)C(Cc2ccc(O)c(I)c2)N(C)C(=O)CNC(=O)C(C)C1 (stereo not drawn) | > 77.3
Cc1ccc(-n2cnc3c(N)nc(N)nc32)cc1 | > 100
CC12CCC3[C@@H](CC3(C)C)C(O)(CCC1=O)C2 (stereo partly drawn) | > 100
CO[C@H]1c2cccc3cccc(c23)[C@@H]1n1[nH]c(=O)n(C(C)(C)C)c1=O | > 100
CCCCCCCCCCCCCCCCCCNc1ccn(C2OC(COP(=O)(O)OC3CC(n4cc(F)c(=O)[nH]c4=O)OC3COP(=O)(O)OCC3OC(n4ccc(N)nc4=O)C(O)C3O)C(O)C2O)c(=O)n1 (stereo not drawn) | 53.5

Tested on: SF-295 CNS
Assay: DTP human tumour cell line panel, 48 h

Compound | TGI [µM]
N#CC(C#N)N=Cc1ccncc1 | > 100
COc1ccc2c(c1)/C(=C\c1c(C)nc3n1CCS3)C(=O)N2 | 98.9
COC(=O)C1=C(O)C(C(=O)OC)[C@]2(O)[C@H](C(=O)OC)[C@H]1C[C@@H](c1ccc(F)cc1)[C@H]2C(=O)OC (stereo partly drawn) | 43.9
CCN(CC)c1cc2c3c(c1)CCCN3CCC2 | > 10
CN(C)C=C1C(=O)c2c(Br)sc(Br)c2C1=O | 49.7
CC(=O)O[C@H]1CC[C@H]2[C@@H]3CCC4C(C)=NNC(=O)C4[C@H]3CC[C@]12C (stereo partly drawn) | > 100
COc1cc2c[n+](C)c3c4cc5c(cc4ccc3c2cc1OC)OCO5 | 57.7
O=c1[nH]c(C23CC4CC(CC(C4)C2)C3)cc2c1c(=O)oc1ccccc12 | 12.9
CCN(CC)C(=C(C(Cl)=C(Cl)Cl)[N+](=O)[O-])N(CC)CC | > 100
O=C1C(=O)c2c(oc(=O)c3ccccc23)-c2ccccc21 | > 25
CCOC(=O)C(C(=O)OCC)=C1NC2(c3ccccc3Nc3ccc(C)cc32)C(C#N)S1 (stereo not drawn) | 58.7
CN1CCC2(CC1)SC[C@H]1C(=O)N(c3ccc(Cl)cc3)C(=O)N12 | > 100
CC(C)=CCC[C@@H](C)C1=C(O)C(O)C(C)=C2N=C(c3ccccc3)C(=O)OC21 (stereo partly drawn) | > 10.9
